Patent US9012403B2, “Peptides as active agents to stabilize biological barriers” (XiberScience GmbH, priority 2010, dated 2015)
Marks after values point to notes of the source that are not given here.

What was measured:
GTP-bound RhoA [1] = assay: GTP-associated active RhoA in Caco-2 membrane fraction (western blot); type: cell-based; conditions: for GTP-bound RhoA, relative values compared to unstimulated control (Mean): CaCo-2, PMA 1 μg/ml, with or without peptide 50 μg/ml; for increase of RhoA-activity: CaCo-2 cells, PMA-stimulus
Procedure: (§1) To measure the GTP-associated active RhoA, the following cell lines were used: Caco-2, ECV304 and HpMec. All cells were grown at standard conditions (37° C., 5% CO2 and 95% rH). 4 h before the experiment, cells were starved by serum withdrawal. To induce GEF-activity, cells were stimulated with thrombin, LPS or PMA for the indicated time in presence or absence of 50 μg/ml XIB1-a or XIB1-b. After stimulation, membrane fractions were prepared by using the commercial available “Compartemental Protein Extraction Kit” from Biochain Institutes. Membrane fractions were prepared according to the manufacturer instructions. The membrane fraction was separated on 15% polyacrylamide gel according to standard procedures of gel electrophoresis. The gels were afterwards blotted on a nitrocellulose membrane according to standard procedures of western blotting. GTP-bound RhoA was detected using RhoA-GTP monoclonal antibody from NewEast Inc. in a dilution of 1:5000. Protein bands were analyzed with the Dolphin-1D Gel analysis system (Wealtec).

GEF [2] = assay: GEF-activity in membrane fractions of Caco-2 cells (RhoGEF Exchange Assay); type: cell-based; conditions: for GEF-activity, relative values compared to unstimulated control (Mean): CaCo-2, PMA 1 μg/ml, with or without peptide 50 μg/ml
Procedure: (§2) To measure the GEF-inhibitory effect, the following cell lines were used: Caco-2 (epithelial cells from adeno-carcinoma), ECV304 (epithelial cells from bladder carcinoma) and HpMec (endothelial cells, immortalized pulmonary micro-vascular cells). All cells were grown at standard conditions (37° C., 5% CO2 and 95% relative humidity (rH)). Culture Medium used for Caco-2: DMEM+1 mM sodium pyruvate+20% FCS+1% Penicillin Streptomycin; for ECV 304: RPMI 1640+10% FCS+1% Penicillin Streptomycin; and for HpMec: IMDM+25 mM Hepes+10% Human Serum+1% Penicillin Streptomycin+1% L-Glutamine+ECGS/Heparin 2 ml. 4 h before the experiment, cells were starved by serum withdrawal. To induce GEF-activity, cells were stimulated with thrombin, lipopolysaccharide (LPS) or PMA for the indicated time in presence or absence of 50 μg/ml XIB1-a or XIB1-b. After stimulation, membrane fractions were prepared by using the commercial available “Compartemental Protein Extraction Kit” from Biochain institutes. Membrane fractions were prepared according to the manufacturer instructions. GEF-activity in membrane lysates was determined by using “RhoGEF Exchange Assay Biochem Kit” from Cytoskeleton Inc. according to manufacturer instructions. GEF-activity was measured as fluorescence at using the Fluoroskan Ascent FL 2.6 from Thermo Electron Corporation. The excitation Filter wavelength was set at 355 nm and the emission filter wavelength at 460 nm.

[3] = test system: Phosphorylated Myosin Light Chain (MLC) and actin stress fibers; assay: MLC phosphorylation and actin stress fiber formation in Caco-2 cells (microscopy score); type: cell-based; conditions: CaCo-2, PMA 1 μg/ml, with or without peptide 50 μg/ml
Procedure: (§3) To measure MLC phosphorylation and actin stress fiber formation, the following cell lines were used: Caco-2, ECV304 and HpMec. All cells were grown at standard conditions (37° C., 5% CO2 and 95% rH). Culture Medium used: for Caco-2: DMEM+1 mM sodium pyruvate+20% FCS+1% Penicillin Streptomycin; for ECV 304: RPMI 1640+10% FCS+1% Penicillin Streptomycin; and for HpMec: IMDM+25 mM Hepes+10% Human Serum+1% Penicillin Streptomycin+1% L-Glutamine+ECGS/Heparin 2 ml. 4 h before the experiment, cells were starved by serum withdrawal. To induce GEF-activity, cells were stimulated with thrombin, LPS or PMA for the indicated time in presence or absence of 50 μg/ml XIB1-a or XIB1-b. After stimulation, cells were fixed using 4% PFA. Phospho MLC was detected by using the “rabbit anti phosphor-myosin light chain antibody” from Chemicon in a concentration of 3 μl/ml in PBS (Gibco) supplemented with 0.1% Triton X-100. As detection antibody, the Alexa 448 tagged “anti Rabbit IgG Antibody” from Invitrogen was used in a concentration of 0.5 μl/ml in PBS (Gibco) supplemented with 0.1% Triton X-100. Aktin was detected using TRITC-labeled Phalloidin in a concentration of 0.5 μl/ml in PBS (Gibco) supplemented with 0.1% Triton. Stained cells were analyzed by using a Zeiss Laser Scan microscope. Evaluation of the cyto-skeletal activation was performed by 2 independent observers that were blinded to the conditions. Evaluation criteria were set as follows:
(§4) Actin: parallel actin bundles absent=0; distinct bundle formation=1; prominent parallel bundles=2; Phospho-MLC: present at cell poles=0; slight co-localization with actin bundles=1; prominent co-localization with actin bundles=2

[4] = test system: Ventilator-Induced Lung Injury (VILI); assay: Ventilator-induced lung injury (VILI) after LPS pre-challenge; type: in vivo; conditions: mice, LPS + high tidal volume ventilation (LPS-HTV); i.v. 4 mg/kg loading, then 1 mg/kg/h
Procedure: Experiments were performed with healthy C57BL/6 (aged 8-10 weeks, with weights ranging from 19-25 g). All interventions were performed according to the guide lines of AAALAC. All experiment were approved by the Ethic committee of the University of Amsterdam.
Mice were challenged with LPS (dosage: 50 μg per mouse) (or saline), via intranasal injection 2 h before initiation of mechanical ventilation, to induce lung injury.
XIB1-1b (or random peptide) was administered i.v. 10 min before start of mechanical ventilation (dosage: 4 mg/kg loading dose, followed administration i.v. injections 1 mg/kg/h.
A Y-tube connector with 1.0 mm outer diameter and 0.6 mm inner diameter was surgically inserted into the trachea under general anesthesia. Mice were placed in a supine position and connected to a ventilator. Mice were pressure-controlled ventilated with either an inspiratory pressure of 10 cm H2O (resulting in VT˜7.5 mL/kg; low VT, LVT) or an inspiratory pressure of 18 cm H2O (resulting in VT˜15 mL/kg; high VT, HVT). Positive end-expiratory pressure (PEEP) is set at 2 cm H2O with both MV-strategies. The fraction of inspired oxygen was kept at 0.5 throughout the experiment. The inspiration to expiration ratio was kept at 1:1 throughout the experiment.
BALF was obtained by instilling 3 times 0.5 mL aliquots of saline by a 22-gauge Abbocath-T catheter (Abbott, Sligo, Ireland) into the trachea. Approximately, 1.0 mL of BALF was retrieved per mouse and cell counts were determined using a hemacytometer (Beckman Coulter, Fullerton, Calif.). Subsequently, differential counts were done on cytospin preparations stained with a modified Giemsa stain, Diff-Quick (Dade Behring AG, Düdingen, Switzerland). Supernatant was stored at −80° C.
Total protein levels in BALF are determined using a Bradford Protein Assay Kit (OZ Biosciences, Marseille, France) according to manufacturers' instructions with bovine serum albumin as standard. Mouse IgM was determined by ELISA by using anti-Mouse IgM sensitized 96-strip micro-well plates according to manufacturers' instructions (IMMUNO-TEK kit from ZeptoMetrix).

LPS induced lung injury = assay: LPS induced lung injury, bronchoalveolar lavage; type: in vivo; conditions: mice, 6 h after LPS, n = 20
Procedure: Male C57Bl/6 Mice (Charles River, Germany) were kept at the animal facility of the Medical University of Vienna, feed with standard diet and water was provided ad libitum. All interventions were performed according to the guide lines of AAALAC (Association for Assessment and Accreditation of Laboratory Animal Care). All experiment were approved by the Ethic committee of the Medical University of Vienna. Mice were anesthetized with isoflouran and treated with 100 ng of LPS (E. coli O55:B5, Sigma Aldrich) intranasally. XIB1-a or XIB1-b was applied either intra-peritoneally (2×2 mg/kg) or via inhalation (2×4 mg/kg), first application was performed concomitantly with LPS administration, the second application was performed 1 h after the LPS inhalation.
The trachea was exposed through a midline incision and canulated with a sterile 20-gauge catheter (BD Venflon™, Becton Dickinson Infusion Therapy, Helsingborg, Sweden). Bilateral broncho-alveolar lavage fluid (BALF) was gained by instilling two 0.5 ml aliquots of sterile saline. Approximately 0.9-1 ml BALF was retrieved per mouse. Total cell numbers were counted from each sample using a hemo-cytometer (Türck chamber), BALF differential cell counts were done on cytospin preparations stained with Giemsa. For protein measurements, BALF was diluted 1:2 in buffer containing 300 mM NaCl, 30 mM Tris, 2 mM MgCl2, 2 mM CaCl2, and Pepstatin A, Leupeptin and Aprotinin (all 20 ng/ml; pH 7.4). Protein levels in BALF were measured using the BCA protein kit according to the manufacturer's instructions (Pierce, Rockford, Ill.).
In addition, the same set-up as described above was used for comparing the impact of XIB1-b compared to Bβ15-42 (PLoS ONE (2009), 4(4): e5391), a peptide derived from fibrin having the sequence […] (SEQ ID NO: 41). Bβ15-42 was added in the same manner as XIB1-b. Again, protein content and cell count of BALF was measured.

GEF [5] = assay: GEF-activity in membrane fractions of ECV304 cells (RhoGEF Exchange Assay); type: cell-based; conditions: ECV 304, Thrombin 1 U/ml, with or without peptide 50 μg/ml
Procedure: as §2

GEF [6] = assay: GEF-activity in membrane fractions of HpMec cells (RhoGEF Exchange Assay); type: cell-based; conditions: for increase in GEF-activity: HepMec cells, thrombin; for GEF-activity, relative values compared to unstimulated control (Mean): HpMec, Thrombin 1 U/ml, with or without peptide 50 μg/ml
Procedure: as §2

[7] = test system: Phosphorylated Myosin Light Chain (MLC) and actin stress fibers; assay: MLC phosphorylation and actin stress fiber formation in HpMec cells (microscopy score); type: cell-based; conditions: Thrombin 1 U/ml, with or without peptide 50 μg/ml
Procedure: as §3, §4

GTP-bound RhoA [8] = assay: GTP-associated active RhoA in HpMec membrane fraction (western blot); type: cell-based; conditions: for increase in RhoA-activity: HepMec cells, thrombin; for GTP-bound RhoA, relative values compared to unstimulated control (Mean): HpMec, Thrombin 1 U/ml, with or without peptide 50 μg/ml
Procedure: as §1

[9] = test system: Phosphorylated Myosin Light Chain (MLC) and actin stress fibers; assay: MLC phosphorylation and actin stress fiber formation in ECV304 cells (microscopy score); type: cell-based; conditions: ECV 304, Thrombin 1 U/ml, with or without peptide 50 μg/ml
Procedure: as §3, §4

GTP-bound RhoA [10] = assay: GTP-associated active RhoA in ECV304 membrane fraction (western blot); type: cell-based; conditions: ECV 304, Thrombin 1 U/ml, with or without peptide 50 μg/ml
Procedure: as §1

Compound: CCCCCCCCCCCCCC(=O)O[C@@H]1[C@@H](C)[C@@]2(O)[C@@H](C=C(CO)C[C@]3(O)C(=O)C(C)=C[C@@H]23)[C@@H]2C(C)(C)[C@]12OC(C)=O [PMA, reference compound]
- GTP-bound RhoA, relative values compared to unstimulated control (Mean) (GTP-bound RhoA [1]; 1 min): 2.3
- GTP-bound RhoA, relative values compared to unstimulated control (Mean) (GTP-bound RhoA [1]; 5 min): 2.0
- increase of RhoA-activity (GTP-bound RhoA [1]; after 5 mm of stimulation): 2 fold
- increase of RhoA-activity (GTP-bound RhoA [1]; after 1 min): 2.3 fold
- GEF-activity, relative values compared to unstimulated control (Mean) (GEF [2]; 1 min): 2.5
- GEF-activity, relative values compared to unstimulated control (Mean) (GEF [2]; 5 min): 1.8
- increase of GEF-activity (GEF [2]; CaCo-2 cells, 1 min PMA-stimulus): 2.5 fold
- MLC phosphorylation and actin stress fiber formation, evaluation score (Mean) ([3]; 1 min): 3
- MLC phosphorylation and actin stress fiber formation, evaluation score (Mean) ([3]; 5 min): 3

Compound: GGGGGSRRIPL (/note=“Description of artificial sequence variable insert”) [scrambled peptide, scrambled peptide control in the VILI experiment, reference compound]
- IgM content in the BALF [4]: No improvement
- neutrophil count in the BALF [4]: No improvement
- total cell count in the BALF [4]: No improvement
- total protein content in the BALF [4]: No improvement

Compound: GHRPLDKKKREEAPSLRPAPPPISGGGYR (/note=“Description of artificial sequence peptide Bbeta 15-42”) [Bβ15-42, a peptide derived from fibrin]
- albumine content of BALFs (mean +/ SD) (LPS induced lung injury; comparison with Bβ15-42 (Table 6), intraperitoneal application): 160 ± 20 µg/mL
- counts of neutrophils in the BALF (mean +/ SD) (LPS induced lung injury; comparison with Bβ15-42 (Table 6), intratracheal plus intraperitoneal application): 35 +/− 10 neutrophils/ml (× 10^3)
- albumine content of BALFs (mean +/ SD) (LPS induced lung injury; comparison with Bβ15-42 (Table 6, last section), intraperitoneal application as printed): 152 ± 35 µg/mL

Compound: Thrombin [reference compound]
- GEF-activity, relative values compared to unstimulated control (Mean) (GEF [5]; 1 min): 5
- GEF-activity, relative values compared to unstimulated control (Mean) (GEF [5]; 5 min): 3.4
- increase in GEF-activity (GEF [6]; after 1 min): 3.5 fold
- increase in GEF-activity (GEF [6]; after 5 min): 3 fold
- GEF-activity, relative values compared to unstimulated control (Mean) (GEF [6]; 1 min): 3.5
- GEF-activity, relative values compared to unstimulated control (Mean) (GEF [6]; 5 min): 3
- MLC phosphorylation and actin stress fiber formation, evaluation score (Mean) ([7]; 1 min): 4
- MLC phosphorylation and actin stress fiber formation, evaluation score (Mean) ([7]; 5 min): 4
- increase in RhoA-activity (GTP-bound RhoA [8]; after 1 min): 3.8 fold
- increase in RhoA-activity (GTP-bound RhoA [8]; after 5 min): 3.2 fold
- GTP-bound RhoA, relative values compared to unstimulated control (Mean) (GTP-bound RhoA [8]; 1 min): 3.8
- GTP-bound RhoA, relative values compared to unstimulated control (Mean) (GTP-bound RhoA [8]; 5 min): 3.2
- MLC phosphorylation and actin stress fiber formation, evaluation score (Mean) ([9]; 1 min): 4
- MLC phosphorylation and actin stress fiber formation, evaluation score (Mean) ([9]; 5 min): 4
- GTP-bound RhoA, relative values compared to unstimulated control (Mean) (GTP-bound RhoA [10]; 1 min): 4.3
- GTP-bound RhoA, relative values compared to unstimulated control (Mean) (GTP-bound RhoA [10]; 5 min): 3.2
